Active and inactive are the calls of the source.
Key:
[1] = luciferase reporter signal suppression in cells – H4 neuroglioma cells, luminescence, dose response (AID 1990); format: functional, cell-based
[2] = Luminescence Cell-Based Dose Response HTS to Identify Inhibitors of 5'UTR Stem-Loop Driven Prion Protein mRNA Translation in H4 Neuroglioblastoma Cells. [Related pubchem assays: 1827 (Project Summary), 1813 (Primary HTS)]; format: functional
[3] = alpha-synuclein stem-loop luciferase translation blockers – H4 neuroglioma cells, luminescence, confirmation (AID 1988); format: functional, cell-based
[4] = target: T1, DNA repair protein RAD52 homolog (Homo sapiens, UniProt P43351); format: functional, biochemical
T1 sequence (P43351 whole entry): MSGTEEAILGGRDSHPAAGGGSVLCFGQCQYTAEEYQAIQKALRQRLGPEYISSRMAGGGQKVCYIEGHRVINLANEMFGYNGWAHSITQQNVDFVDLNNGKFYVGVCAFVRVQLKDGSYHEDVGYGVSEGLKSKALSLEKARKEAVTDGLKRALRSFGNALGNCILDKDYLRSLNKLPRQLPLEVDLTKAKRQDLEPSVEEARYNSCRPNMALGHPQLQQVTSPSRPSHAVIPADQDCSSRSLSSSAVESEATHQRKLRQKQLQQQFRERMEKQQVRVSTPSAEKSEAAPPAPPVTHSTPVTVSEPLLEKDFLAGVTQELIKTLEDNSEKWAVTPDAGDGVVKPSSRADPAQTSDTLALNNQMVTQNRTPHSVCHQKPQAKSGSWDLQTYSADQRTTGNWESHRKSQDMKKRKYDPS

[5] = Luminescence Cell-Based Dose Confirmation HTS to Identify Activators of 5'UTR Stem-Loop Driven Alpha-Synuclein mRNA Translation in H4 Neuroglioblastoma Cells. [Related pubchem assays: 1829 (Project Summary), 1814 (Primary HTS)]; format: functional
[6] = Luminescence Cell-Based Dose Response HTS to Identify Activators of Luciferase Translation or Activity in H4 […] Cells. [Related pubchem assays: 1829 (Project Summary), 1814 (Primary HTS)]; format: functional
[7] = test system: H4; experiment: Luminescence Cell-Based Dose Response HTS to Identify Activators of 5'UTR Stem-Loop Driven Prion Protein mRNA Translation in H4 Neuroglioblastoma Cells. [Related pubchem assays: 1829 (Project Summary), 1814 (Primary HTS)]; format: functional; conditions: Homo sapiens
[8] = Trypanosoma cruzi growth suppression in host cells – NIH3T3 host cells, beta-gal luminescence, confirmation (AID 2044); format: functional, cell-based;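 further: intracellular parasites grown in NIH/3T3 mouse fibroblasts as host cells; luminescent beta-galactosidase reporter signal from transgenic T. cruzi replicating inside host cells; inhibitors lower the luminescence signal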
[9] = NIH3T3 cell viability loss – ATP luminescence, mouse fibroblasts, counter-screen, dose response (AID 2010); format: functional, cell-based;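 further: cells exposed to compound for about 90 hours before reading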
[10] = growth inhibition of yeast DHODH-expressing 3D7 parasites – SYBR Green, dry powder samples, dose response (AID 1159570); format: functional, cell-based;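 further: parasite growth measured after 72 hours of compound exposure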
[11] = toxicity to human HepG2 hepatoma cells – cell-based, plate reader, dry powder samples, cytotoxicity control, dose response (AID 1159569); format: functional;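 further: inhibitor potency with signal falling toward the positive control level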
[12] = P. falciparum Dd2 growth inhibitors, dose response, SYBR Green, cherry-picked samples (AID 1159567); format: functional, cell-based
[13] = Dd2 malaria parasite growth inhibition potency – SYBR Green, dry powder samples, dose response (AID 1159566); format: functional, cell-based;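 further: potency for growth inhibition with lower SYBR green DNA signal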
[14] = growth inhibition of PfATP4-mutant resistant parasites – NITD609-resistant line, SYBR Green, dry powder, dose response (AID 1159571); format: functional, cell-based;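 further: parasites synchronized at ring stage by sorbitol before testing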
[15] = toxicity to human hepatoma HepG2 cells – cell-based, cherry-picked samples, cytotoxicity control, dose response (AID 1159577); format: functional
[16] = cells; format: functional, cell-based
[17] = cells; format: functional, cell-based; remark: listed apart in the source
[18] = target: T2, Mannose-6-phosphate isomerase (Homo sapiens, UniProt P34949); experiment: MPI inhibition at elevated mannose 6-phosphate – biochemical, fluorescence intensity, high mannose 6-phosphate, primary screen (AID 1220)
T2 sequence (P34949 whole entry): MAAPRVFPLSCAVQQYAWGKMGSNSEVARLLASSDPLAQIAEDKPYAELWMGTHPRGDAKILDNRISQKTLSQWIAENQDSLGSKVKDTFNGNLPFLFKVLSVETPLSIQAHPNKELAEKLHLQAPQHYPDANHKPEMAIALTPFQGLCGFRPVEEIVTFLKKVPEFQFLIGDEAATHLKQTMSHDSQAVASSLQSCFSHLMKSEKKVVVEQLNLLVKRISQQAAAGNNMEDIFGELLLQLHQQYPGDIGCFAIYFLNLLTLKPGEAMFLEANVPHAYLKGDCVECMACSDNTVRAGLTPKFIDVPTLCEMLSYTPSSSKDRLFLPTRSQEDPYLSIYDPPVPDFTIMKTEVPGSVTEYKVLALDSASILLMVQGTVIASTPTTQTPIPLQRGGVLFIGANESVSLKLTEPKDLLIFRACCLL

CC(=O)OCCc1c2ccccc2c(CCCN(C)C)c2ccccc12
EC50 [1]: > 120 µM (not active) | EC50 [2]: > 120 µM (not active) | EC50 [3]: > 120 µM (not active) | AC50 [4]: 11.2 µM (active)

COc1cccc(-c2nc(N3CCN(C)CC3)c3ccccc3n2)c1O
EC50 [5]: > 120 µM (not active) | EC50 [6]: 12.9 µM (active) | EC50 [7]: > 120 µM (not active) | EC50 [8]: < 100 nM (active) | EC50 [9]: > 60 µM (not active) | AC50 [4]: 3.52 µM (active)

COc1cccc(S(=O)(=O)N2CCC3(CC2)CN[C@H](CO)c2[nH]c4cc(OC)ccc4c23)c1
AC50 [10]: 4.68 µM (active) | AC50 [11]: 33.2 µM (active) | AC50 [12]: 2.6 µM (active) | AC50 [13]: 2.53 µM (active) | AC50 [14]: 2.52 µM (active)

N#C[C@H]1[C@@H](c2ccc(C#Cc3ccccc3F)cc2)[C@@H](CO)N1C(=O)C1CCCC1
AC50 [10]: 1.69 µM (active) | AC50 [11]: 54.2 µM (active) | AC50 [12]: 1.84 µM (active) | AC50 [13]: 1.18 µM (active) | AC50 [15]: > 39 µM (inactive) | AC50 [14]: 1.88 µM (active)

COc1ccccc1CN1CC2(C1)[C@H](c1ccccc1)[C@@H](CO)N2Cc1ccccc1
AC50 [10]: 0.765 µM (active) | AC50 [11]: 24.9 µM (active) | AC50 [13]: 0.477 µM (active) | AC50 [14]: 0.656 µM (active)

Cc1nc(NCCc2ccccc2)c(C#N)c(C)c1[N+](=O)[O-]
EC50 [16]: > 350 µM (not active) | EC50 [17]: > 350 µM (not active)

C/C(=N\NC(=O)CN1CCCCC1)c1ccccc1O
EC50 [16]: 29.7 µM (active) | EC50 [17]: > 350 µM (not active)

CCOc1cc(N2CCOCC2)c(OCC)cc1N=C(S)NCCCOC
IC50 [18]: > 50 µM (not active)

Reference: ChEMBL document CHEMBL1201862, “PubChem BioAssay data set” (2004)
